Measured values from ChEMBL document CHEMBL1201862, “PubChem BioAssay data set” (2004).
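Following 48 hours of exposure in 96-well plates, responses at five concentrations were used to interpolate endpoints linearly. GI50 is the concentration that inhibits growth by half.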 Active and inactive are the calls of the source. Rule as the data show it: active = GI50 up to about 1.1 µM and inactive = higher.

Experiments:
Experiment in all cases: NCI tumour cell line growth inhibition, 48 h
TK-10 = tested on: TK-10
HCC 2998 = tested on: HCC 2998
MOLT-4 = tested on: MOLT-4
SW-620 = tested on: SW-620
UACC-257 = tested on: UACC-257
786-0 = tested on: 786-0
KM12 = tested on: KM12
NCI-H522 = tested on: NCI-H522
UO-31 = tested on: UO-31
NCI-H460 = tested on: NCI-H460
SF-295 = tested on: SF-295
OVCAR-4 = tested on: OVCAR-4
SF-268 = tested on: SF-268
BT-549 = tested on: BT-549
A549 = tested on: A549
HOP-92 = tested on: HOP-92
SR = tested on: SR
SNB-19 = tested on: SNB-19
ACHN = tested on: ACHN
MCF7 = tested on: MCF7
PC-3 = tested on: PC-3
MDA-MB-435 = tested on: MDA-MB-435
HOP-62 = tested on: HOP-62
HCT-15 = tested on: HCT-15
K562 = tested on: K562
EKVX = tested on: EKVX
SF-539 = tested on: SF-539
LOX IMVI = tested on: LOX IMVI
HCT-116 = tested on: HCT-116
Hs-578T = tested on: Hs-578T
MDA-MB-231 = tested on: MDA-MB-231
SK-MEL-2 = tested on: SK-MEL-2
RPMI-8226 = tested on: RPMI-8226
SN12C = tested on: SN12C
OVCAR-5 = tested on: OVCAR-5
SK-OV-3 = tested on: SK-OV-3
CAKI-1 = tested on: CAKI-1
SK-MEL-5 = tested on: SK-MEL-5
SNB-75 = tested on: SNB-75
NCI/ADR-RES = tested on: NCI/ADR-RES
DU-145 = tested on: DU-145
CCRF-CEM = tested on: CCRF-CEM
RXF 393 = tested on: RXF 393
OVCAR-3 = tested on: OVCAR-3
U-251 = tested on: U-251
Malme-3M = tested on: Malme-3M
HL-60 = tested on: HL-60
UACC-62 = tested on: UACC-62
COLO 205 = tested on: COLO 205
NCI-H23 = tested on: NCI-H23
OVCAR-8 = tested on: OVCAR-8
IGROV-1 = tested on: IGROV-1
SK-MEL-28 = tested on: SK-MEL-28
M14 = tested on: M14
A498 = tested on: A498
MDA-N = tested on: MDA-N
HT-29 = tested on: HT-29
T47D = tested on: T47D
NCI-H226 = tested on: NCI-H226

## O=C1C=C(C2=C(C3=CC(=O)c4ccccc4C3=O)C(=O)c3ccccc3C2=O)C(=O)c2ccccc21
TK-10
  GI50: 6.21 µM (inactive)
HCC 2998
  GI50: 16.9 µM (inactive)
MOLT-4
  GI50: 0.389 µM (active)
SW-620
  GI50: 3.79 µM (inactive)
UACC-257
  GI50: 10.5 µM (inactive)
786-0
  GI50: 2.9 µM (inactive)
KM12
  GI50: 7 µM (inactive)
NCI-H522
  GI50: 2.17 µM (inactive)
UO-31
  GI50: 2.85 µM (inactive)
NCI-H460
  GI50: 14.8 µM (inactive)
SF-295
  GI50: 16.1 µM (inactive)
OVCAR-4
  GI50: 6.03 µM (inactive)
SF-268
  GI50: 12.6 µM (inactive)
BT-549
  GI50: 14.6 µM (inactive)
A549
  GI50: 9.48 µM (inactive)
HOP-92
  GI50: 2.45 µM (inactive)
SR
  GI50: 31.1 µM (inactive)
SNB-19
  GI50: 14.4 µM (inactive)
ACHN
  GI50: 17.9 µM (inactive)
MCF7
  GI50: 7.69 µM (inactive)
PC-3
  GI50: 10.4 µM (inactive)
MDA-MB-435
  GI50: 2.47 µM (inactive)
HOP-62
  GI50: 14.8 µM (inactive)
HCT-15
  GI50: 9.89 µM
K562
  GI50: 2.67 µM (inactive)
EKVX
  GI50: 11.1 µM (inactive)
SF-539
  GI50: 8.28 µM (inactive)
LOX IMVI
  GI50: 3.36 µM (inactive)
HCT-116
  GI50: 4.84 µM (inactive)
Hs-578T
  GI50: 11.5 µM (inactive)
MDA-MB-231
  GI50: 3.07 µM (inactive)
SK-MEL-2
  GI50: 17.2 µM (inactive)
RPMI-8226
  GI50: 3.48 µM (inactive)
SN12C
  GI50: 7.26 µM (inactive)
OVCAR-5
  GI50: 11.8 µM (inactive)
SK-OV-3
  GI50: 20.9 µM (inactive)
CAKI-1
  GI50: 4.7 µM (inactive)
SK-MEL-5
  GI50: 9.4 µM (inactive)
SNB-75
  GI50: 9.46 µM (inactive)
NCI/ADR-RES
  GI50: 11.1 µM (inactive)
DU-145
  GI50: 5.18 µM (inactive)
CCRF-CEM
  GI50: 0.286 µM (active)
RXF 393
  GI50: 1.69 µM (inactive)
OVCAR-3
  GI50: 2.84 µM (inactive)
U-251
  GI50: 4.48 µM (inactive)
Malme-3M
  GI50: 2.11 µM (inactive)
HL-60
  GI50: 1.21 µM (inactive)
UACC-62
  GI50: 15.1 µM (inactive)
COLO 205
  GI50: 3.94 µM (inactive)
NCI-H23
  GI50: 7.43 µM (inactive)
OVCAR-8
  GI50: 5.62 µM (inactive)
IGROV-1
  GI50: 2.15 µM (inactive)
SK-MEL-28
  GI50: 14 µM (inactive)
M14
  GI50: 8.87 µM (inactive)
A498
  GI50: 16.9 µM (inactive)
MDA-N
  GI50: 2.25 µM (inactive)
HT-29
  GI50: 3.12 µM (inactive)
T47D
  GI50: 6.19 µM (inactive)
NCI-H226
  GI50: 13 µM (inactive)

## CCCCCCCCCCC/C=C(/C(=O)CCCO[Si](C)(C)C(C)(C)C)C(=O)OC
TK-10
  GI50: > 100 µM (inactive)
HCC 2998
  GI50: > 100 µM (inactive)
MOLT-4
  GI50: > 100 µM (inactive)
SW-620
  GI50: > 100 µM (inactive)
UACC-257
  GI50: > 100 µM (inactive)
786-0
  GI50: > 100 µM (inactive)
KM12
  GI50: > 100 µM (inactive)
NCI-H522
  GI50: > 100 µM (inactive)
UO-31
  GI50: > 100 µM (inactive)
NCI-H460
  GI50: > 100 µM (inactive)
SF-295
  GI50: > 100 µM (inactive)
OVCAR-4
  GI50: > 100 µM (inactive)
SF-268
  GI50: > 100 µM (inactive)
BT-549
  GI50: > 100 µM (inactive)
HOP-92
  GI50: > 100 µM (inactive)
SR
  GI50: > 100 µM (inactive)
SNB-19
  GI50: > 100 µM (inactive)
ACHN
  GI50: > 100 µM (inactive)
MCF7
  GI50: > 100 µM (inactive)
PC-3
  GI50: > 100 µM (inactive)
MDA-MB-435
  GI50: > 100 µM (inactive)
HOP-62
  GI50: > 100 µM (inactive)
HCT-15
  GI50: > 100 µM
K562
  GI50: > 100 µM (inactive)
EKVX
  GI50: > 100 µM (inactive)
SF-539
  GI50: > 100 µM (inactive)
LOX IMVI
  GI50: > 100 µM (inactive)
HCT-116
  GI50: > 100 µM (inactive)
Hs-578T
  GI50: > 100 µM (inactive)
MDA-MB-231
  GI50: > 100 µM (inactive)
SK-MEL-2
  GI50: > 100 µM (inactive)
RPMI-8226
  GI50: > 100 µM (inactive)
SN12C
  GI50: > 100 µM (inactive)
OVCAR-5
  GI50: > 100 µM (inactive)
SK-OV-3
  GI50: > 100 µM (inactive)
CAKI-1
  GI50: > 100 µM (inactive)
SK-MEL-5
  GI50: > 100 µM (inactive)
SNB-75
  GI50: > 100 µM (inactive)
NCI/ADR-RES
  GI50: > 100 µM (inactive)
DU-145
  GI50: > 100 µM (inactive)
CCRF-CEM
  GI50: > 100 µM (inactive)
RXF 393
  GI50: > 100 µM (inactive)
OVCAR-3
  GI50: > 100 µM (inactive)
U-251
  GI50: > 100 µM (inactive)
Malme-3M
  GI50: > 100 µM (inactive)
HL-60
  GI50: > 100 µM (inactive)
UACC-62
  GI50: > 100 µM (inactive)
COLO 205
  GI50: > 100 µM (inactive)
NCI-H23
  GI50: > 100 µM (inactive)
OVCAR-8
  GI50: > 100 µM (inactive)
IGROV-1
  GI50: > 100 µM (inactive)
SK-MEL-28
  GI50: > 100 µM (inactive)
M14
  GI50: > 100 µM (inactive)
A498
  GI50: > 100 µM (inactive)
MDA-N
  GI50: > 100 µM (inactive)
HT-29
  GI50: > 100 µM (inactive)
T47D
  GI50: > 100 µM (inactive)
NCI-H226
  GI50: > 100 µM (inactive)
